Results on one molecule are retold here after publication PMC11402452, “Etomoxir-carnitine, a novel pharmaco-metabolite of etomoxir, inhibits phospholipases A2 and mitochondrial respiration” (Journal of Lipid Research, 2024).

By IC50 is commonly meant the concentration at which inhibition is half-maximal.

The structures appear in SMILES notation.

The experiment concerns the target T1, calcium-independent phospholipase A2γ (iPLA2γ) (Homo sapiens, UniProt Q9NP80).
T1 construct: gene PNPLA8; 63 kDa recombinant human peroxisomal isoform, N-terminal (His)6 tag
T1 sequence (Q9NP80 221-782 limits assumed): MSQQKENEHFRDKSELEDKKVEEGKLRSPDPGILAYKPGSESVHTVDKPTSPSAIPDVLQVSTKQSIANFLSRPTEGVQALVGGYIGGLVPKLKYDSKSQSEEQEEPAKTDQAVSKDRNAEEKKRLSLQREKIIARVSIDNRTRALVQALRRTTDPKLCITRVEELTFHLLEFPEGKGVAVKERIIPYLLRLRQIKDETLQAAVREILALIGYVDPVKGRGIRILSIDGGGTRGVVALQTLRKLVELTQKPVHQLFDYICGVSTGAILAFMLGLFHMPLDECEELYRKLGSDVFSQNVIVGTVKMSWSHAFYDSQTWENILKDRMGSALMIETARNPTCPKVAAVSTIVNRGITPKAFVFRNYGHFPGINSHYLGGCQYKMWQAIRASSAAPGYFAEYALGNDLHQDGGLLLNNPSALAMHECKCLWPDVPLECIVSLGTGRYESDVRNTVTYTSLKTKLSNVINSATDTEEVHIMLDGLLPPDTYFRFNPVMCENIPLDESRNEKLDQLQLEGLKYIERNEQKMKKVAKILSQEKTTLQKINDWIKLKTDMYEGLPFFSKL
Nature of the experiment: purified recombinant PLA2 activity assay (PAPC/diolein SUVs), LPC production by ESI-MS. It counts as biochemical.

With `C[N+](C)(C)C[C@@H](CC(=O)O)OC(=O)[C@@]1(CCCCCCOc2ccc(Cl)cc2)CO1` [ETO-carnitine, (R)-3-carboxy-2-(((R)-2-(6-(4-chlorophenoxy)hexyl)oxirane-2-carbonyl)oxy)-N,N,N-trimethylpropan-1-aminium], the IC50 is roughly 1.75 nM.
